In patent US20260078089A1, “BIOACTIVE PHYTOCHEMICALS IN ZIZYPHUS AND GUARANA” (Phytoquest Limited, priority 2018, published 2026):

Tests used:
Test in all cases: Glycosidase assay, p-nitrophenyl substrate
Type in all cases: biochemical
[1] = biological target: T1, N-acetyl-β-D-hexosaminidase (Aspergillus oryzae, UniProt Q8J2T0); details: Aspergillus oryzae enzyme; screened at 0.14 mg mL−1 (footnote: 0.4 mM)
T1 construct: purchased Sigma Aldrich Chemicals Limited
Method: (§1) Glycosidase assays were conducted as described by Watson et al. (Phytochemistry 1997, 46, 255) using p-nitrophenyl-substrates (except sialidase which used methylumbeliferyl-N-acetyineuraminic acid as substrate). Assays were carried out in microtitre plates. Enzymes were assayed in 0.1 M citric acid/0.2 M di-sodium hydrogen phosphate (McIlvaine) buffers at the optimum pH for the enzyme. All assays were carried out at 20° C. All enzymes and substrates were purchased from Sigma Aldrich Chemicals Limited. The incubation mixture consisted of 10 μl of enzyme solution, 10 μl of the iminosugars solution and 50 μl of the appropriate 5 mM p-nitrophenyl substrate made up in McIlvaine buffer at the optimum pH for the enzyme. The reactions were stopped with 0.4 M glycine (pH 10.4) during the exponential phase of the reaction. Absorbances were read at 405 nm. Water was substituted for the alkaloids in the blanks. Reactions were carried out in triplicate.
(§2) Enzyme inhibitor solutions—Compounds were dissolved in distilled water at a concentration of 1 mg mL^−1 and then screened at a concentration of 0.14 mg mL^−1 after dilution of the 1 mg mL^−1 in the assay volumes of substrates.

Amyloglucosidase = biological target: T2, Amyloglucosidase (Aspergillus niger, UniProt P69328); details: Aspergillus niger enzyme; screened at 0.14 mg mL−1 (footnote: 0.4 mM)
T2 construct: purchased Sigma Aldrich Chemicals Limited
T2 sequence (P69328 25-640): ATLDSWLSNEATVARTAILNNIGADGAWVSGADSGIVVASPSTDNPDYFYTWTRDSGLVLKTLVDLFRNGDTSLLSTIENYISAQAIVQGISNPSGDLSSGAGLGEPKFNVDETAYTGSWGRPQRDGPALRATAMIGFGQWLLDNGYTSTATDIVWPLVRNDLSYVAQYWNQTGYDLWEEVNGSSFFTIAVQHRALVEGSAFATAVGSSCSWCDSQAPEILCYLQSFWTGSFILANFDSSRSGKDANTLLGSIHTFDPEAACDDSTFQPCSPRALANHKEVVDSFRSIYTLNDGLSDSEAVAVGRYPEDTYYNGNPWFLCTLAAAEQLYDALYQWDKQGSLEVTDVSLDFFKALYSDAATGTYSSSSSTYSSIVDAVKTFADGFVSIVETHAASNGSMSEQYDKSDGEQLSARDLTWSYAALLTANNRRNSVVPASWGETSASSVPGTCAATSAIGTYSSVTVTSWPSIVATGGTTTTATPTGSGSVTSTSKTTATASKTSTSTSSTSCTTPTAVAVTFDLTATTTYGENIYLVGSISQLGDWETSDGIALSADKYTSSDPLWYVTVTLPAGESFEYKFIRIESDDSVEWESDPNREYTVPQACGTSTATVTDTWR
Method: as §1, §2

α-D-mannosidase = biological target: T3, α-D-mannosidase (Canavalia ensiformis, UniProt C0HJB3); details: Jack bean enzyme; screened at 0.14 mg mL−1 (footnote: 0.4 mM)
T3 construct: purchased Sigma Aldrich Chemicals Limited
T3 sequence (C0HJB3 1-981): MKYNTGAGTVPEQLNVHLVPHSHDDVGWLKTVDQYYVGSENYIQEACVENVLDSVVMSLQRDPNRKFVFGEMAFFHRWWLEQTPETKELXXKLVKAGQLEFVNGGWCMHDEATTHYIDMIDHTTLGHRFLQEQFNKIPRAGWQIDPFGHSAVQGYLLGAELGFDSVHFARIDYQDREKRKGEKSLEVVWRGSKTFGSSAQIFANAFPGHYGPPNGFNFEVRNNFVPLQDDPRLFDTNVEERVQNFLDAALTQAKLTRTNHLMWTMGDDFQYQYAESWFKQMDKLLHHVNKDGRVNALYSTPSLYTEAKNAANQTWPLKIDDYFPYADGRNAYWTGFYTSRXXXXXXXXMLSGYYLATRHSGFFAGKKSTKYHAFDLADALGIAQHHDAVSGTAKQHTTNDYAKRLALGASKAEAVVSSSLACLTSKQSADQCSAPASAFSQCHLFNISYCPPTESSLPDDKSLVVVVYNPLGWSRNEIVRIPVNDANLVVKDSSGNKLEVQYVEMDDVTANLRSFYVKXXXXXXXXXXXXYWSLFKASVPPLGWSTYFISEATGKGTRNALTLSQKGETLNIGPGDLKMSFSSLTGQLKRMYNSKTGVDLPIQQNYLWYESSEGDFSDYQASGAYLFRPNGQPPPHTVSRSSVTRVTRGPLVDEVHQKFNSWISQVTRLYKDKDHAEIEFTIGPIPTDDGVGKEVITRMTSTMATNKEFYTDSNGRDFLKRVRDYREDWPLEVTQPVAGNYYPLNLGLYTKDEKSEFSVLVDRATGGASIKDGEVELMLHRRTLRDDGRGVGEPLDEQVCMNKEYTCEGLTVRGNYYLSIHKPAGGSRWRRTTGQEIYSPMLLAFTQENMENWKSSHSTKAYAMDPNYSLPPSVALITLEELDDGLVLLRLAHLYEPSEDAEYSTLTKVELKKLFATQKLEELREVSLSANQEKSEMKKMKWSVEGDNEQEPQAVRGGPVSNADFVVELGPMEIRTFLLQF
Method: as §1, §2

α-D-glucosidase = details: Bacillus sterothermphilus enzyme; screened at 0.14 mg mL−1 (footnote: 0.4 mM)
Method: as §1, §2

T1 sequence (Q8J2T0 97-600): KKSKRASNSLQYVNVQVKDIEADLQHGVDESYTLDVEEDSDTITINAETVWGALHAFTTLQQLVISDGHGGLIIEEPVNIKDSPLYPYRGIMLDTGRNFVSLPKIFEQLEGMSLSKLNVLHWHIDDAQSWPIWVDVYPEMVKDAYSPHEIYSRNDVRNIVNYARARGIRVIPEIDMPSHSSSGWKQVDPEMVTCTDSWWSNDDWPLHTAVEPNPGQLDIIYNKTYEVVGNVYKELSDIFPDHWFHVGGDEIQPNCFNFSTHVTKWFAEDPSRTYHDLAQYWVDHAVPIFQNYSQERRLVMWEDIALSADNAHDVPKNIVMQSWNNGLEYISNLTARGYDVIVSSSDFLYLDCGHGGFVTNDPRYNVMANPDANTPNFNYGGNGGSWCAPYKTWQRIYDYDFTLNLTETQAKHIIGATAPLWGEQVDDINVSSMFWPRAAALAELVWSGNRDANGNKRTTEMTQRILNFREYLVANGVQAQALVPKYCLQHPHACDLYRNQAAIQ

## OC[C@H]1N[C@H](CO)[C@@H](O)[C@@H]1O [DMDP]
[1]
  % inhibition: 5.62%
Amyloglucosidase
  % inhibition: 46.84%
α-D-mannosidase
  % inhibition: 2.70%
α-D-glucosidase
  % inhibition: 92.98%
